According to ChEMBL document CHEMBL3885861, “Open TG-GATES”:

Organism: Rattus norvegicus
Assay: Open TG-GATES - Regimen: Daily Repeat
Type: toxicity, organism-based, Sprague-Dawley
Set-up: regimen Daily Repeat, gender Male, age 6 weeks
Conditions: in vivo, po, route gavage; for APTT / Bas / Eos / Fbg / Hb / Ht / Lym / MCH / MCHC / MCV / Mono / Neu / PT / Plat / RBC / Ret / WBC: tissue Blood; for KIDNEY_L / KIDNEY_R / KIDNEY_TOTAL: tissue Kidney; for LIVER: tissue Liver; for A/G / ALP / ALT / AST / BUN / CRE / Ca / Cl / DBIL / GLC / IP / K / LDH / Na / PL / RALB / TBIL / TC / TG / TP / gamma-GTP: tissue Plasma
[1] = 300 mg/kg, 72 h, dose level Middle, time 3 day
[2] = 300 mg/kg, […], dose level Middle, time 7 day
[3] = 300 mg/kg, […], dose level Middle, time 14 day
[4] = 300 mg/kg, […], dose level Middle, time 28 day
[5] = 1000 mg/kg, 72 h, dose level High, time 3 day
[6] = 1000 mg/kg, […], dose level High, time 7 day
[7] = 1000 mg/kg, […], dose level High, time 14 day
[8] = 1000 mg/kg, […], dose level High, time 28 day

## CCCCNC(=O)NS(=O)(=O)c1ccc(C)cc1 [TOLBUTAMIDE]
[1]
  TERMINAL_BW: 233.2 g
  APTT: 17 s
  Bas: 0%
  Eos: 1%
  Fbg: 287.2 mg/dL
  Hb: 13.7 g/dL
  Ht: 41.8%
  Lym: 80%
  MCH: 20.8 pg
  MCHC: 32.8%
  MCV: 63.2 fL
  Mono: 2.6%
  Neu: 15.6%
  PT: 13 s
  Plat: 122.8 x10_4/uL
  RBC: 661 x10_4/ul
  Ret: 6.3%
  WBC: 108 x10_2/uL
  KIDNEY_L: 1 g
  KIDNEY_R: 1 g
  KIDNEY_TOTAL: 2 g
  LIVER: 10.8 g
  A/G: 0.9
  ALP: 1683.8 IU/L
  ALT: 49.4 IU/L
  AST: 70.2 IU/L
  BUN: 13.2 mg/dL
  CRE: 0.2 mg/dL
  Ca: 11.1 mg/dL
  Cl: 105 meq/L
  DBIL: 0.01 mg/dL
  GLC: 176.6 mg/dL
  IP: 8.2 mg/dL
  K: 4 meq/L
  LDH: 69.8 IU/L
  Na: 142.4 meq/L
  PL: 151 mg/dL
  RALB: 2.6 g/dL
  TBIL: 0.062 mg/dL
  TC: 79.2 mg/dL
  TG: 86.4 mg/dL
  TP: 5.5 g/dL
  gamma-GTP: 1 IU/L
[2]
  TERMINAL_BW: 265.6 g
  APTT: 17.8 s
  Bas: 0.4%
  Eos: 1%
  Fbg: 287 mg/dL
  Hb: 14 g/dL
  Ht: 42.1%
  Lym: 81.6%
  MCH: 20.9 pg
  MCHC: 33.3%
  MCV: 62.5 fL
  Mono: 2.2%
  Neu: 14.6%
  PT: 12.7 s
  Plat: 118.8 x10_4/uL
  RBC: 674.4 x10_4/ul
  Ret: 5.3%
  WBC: 114.8 x10_2/uL
  KIDNEY_L: 1.1 g
  KIDNEY_R: 1.1 g
  KIDNEY_TOTAL: 2.2 g
  LIVER: 12.4 g
  A/G: 0.8
  ALP: 1624 IU/L
  ALT: 42 IU/L
  AST: 65.2 IU/L
  BUN: 16.6 mg/dL
  CRE: 0.2 mg/dL
  Ca: 10.8 mg/dL
  Cl: 103.8 meq/L
  DBIL: 0.008 mg/dL
  GLC: 204.8 mg/dL
  IP: 7.5 mg/dL
  K: 4.1 meq/L
  LDH: 57.4 IU/L
  Na: 141 meq/L
  PL: 161 mg/dL
  RALB: 2.5 g/dL
  TBIL: 0.052 mg/dL
  TC: 76.4 mg/dL
  TG: 135.8 mg/dL
  TP: 5.6 g/dL
  gamma-GTP: 1 IU/L
[3]
  TERMINAL_BW: 327.4 g
  APTT: 18 s
  Bas: 0.4%
  Eos: 1%
  Fbg: 290.4 mg/dL
  Hb: 14.6 g/dL
  Ht: 44.4%
  Lym: 78.2%
  MCH: 19.6 pg
  MCHC: 32.8%
  MCV: 59.8 fL
  Mono: 1.8%
  Neu: 18.4%
  PT: 12.8 s
  Plat: 120.3 x10_4/uL
  RBC: 743.4 x10_4/ul
  Ret: 4.3%
  WBC: 98.4 x10_2/uL
  KIDNEY_L: 1.3 g
  KIDNEY_R: 1.3 g
  KIDNEY_TOTAL: 2.5 g
  LIVER: 14.8 g
  A/G: 0.8
  ALP: 1281 IU/L
  ALT: 41.4 IU/L
  AST: 69 IU/L
  BUN: 16 mg/dL
  CRE: 0.2 mg/dL
  Ca: 10.9 mg/dL
  Cl: 104.2 meq/L
  DBIL: 0.012 mg/dL
  GLC: 193.4 mg/dL
  IP: 6.9 mg/dL
  K: 4 meq/L
  LDH: 55.4 IU/L
  Na: 142.2 meq/L
  PL: 158.6 mg/dL
  RALB: 2.7 g/dL
  TBIL: 0.06 mg/dL
  TC: 76.4 mg/dL
  TG: 127.2 mg/dL
  TP: 5.8 g/dL
  gamma-GTP: 1 IU/L
[4]
  TERMINAL_BW: 387.4 g
  APTT: 20 s
  Bas: 0.6%
  Eos: 1%
  Fbg: 266.6 mg/dL
  Hb: 15.4 g/dL
  Ht: 45.4%
  Lym: 81.4%
  MCH: 18.7 pg
  MCHC: 34%
  MCV: 55.2 fL
  Mono: 2.4%
  Neu: 13.8%
  PT: 13.4 s
  Plat: 102.9 x10_4/uL
  RBC: 823.4 x10_4/ul
  Ret: 2.2%
  WBC: 134 x10_2/uL
  KIDNEY_L: 1.4 g
  KIDNEY_R: 1.4 g
  KIDNEY_TOTAL: 2.8 g
  LIVER: 15.5 g
  A/G: 0.8
  ALP: 1057.2 IU/L
  ALT: 39.8 IU/L
  AST: 65.6 IU/L
  BUN: 16 mg/dL
  CRE: 0.2 mg/dL
  Ca: 10.7 mg/dL
  Cl: 104.2 meq/L
  DBIL: 0.01 mg/dL
  GLC: 190 mg/dL
  IP: 6.7 mg/dL
  K: 3.9 meq/L
  LDH: 55 IU/L
  Na: 142.8 meq/L
  PL: 157.2 mg/dL
  RALB: 2.8 g/dL
  TBIL: 0.06 mg/dL
  TC: 74.6 mg/dL
  TG: 152.2 mg/dL
  TP: 6.1 g/dL
  gamma-GTP: 1 IU/L
[5]
  TERMINAL_BW: 225.8 g
  APTT: 17.7 s
  Bas: 0%
  Eos: 1%
  Fbg: 301.6 mg/dL
  Hb: 13.7 g/dL
  Ht: 41.6%
  Lym: 81%
  MCH: 21.2 pg
  MCHC: 33%
  MCV: 64.2 fL
  Mono: 2.2%
  Neu: 15.2%
  PT: 12.8 s
  Plat: 129.6 x10_4/uL
  RBC: 647.4 x10_4/ul
  Ret: 4.2%
  WBC: 89.2 x10_2/uL
  KIDNEY_L: 1 g
  KIDNEY_R: 1 g
  KIDNEY_TOTAL: 2.1 g
  LIVER: 11.5 g
  A/G: 0.9
  ALP: 1487 IU/L
  ALT: 40.8 IU/L
  AST: 69.6 IU/L
  BUN: 12.8 mg/dL
  CRE: 0.2 mg/dL
  Ca: 11 mg/dL
  Cl: 105.2 meq/L
  DBIL: 0.004 mg/dL
  GLC: 172 mg/dL
  IP: 7.9 mg/dL
  K: 3.9 meq/L
  LDH: 75.6 IU/L
  Na: 142.4 meq/L
  PL: 144 mg/dL
  RALB: 2.6 g/dL
  TBIL: 0.06 mg/dL
  TC: 76.8 mg/dL
  TG: 68 mg/dL
  TP: 5.5 g/dL
  gamma-GTP: 1 IU/L
[6]
  TERMINAL_BW: 255.2 g
  APTT: 18.1 s
  Bas: 0.4%
  Eos: 0.6%
  Fbg: 267.4 mg/dL
  Hb: 13.7 g/dL
  Ht: 41.4%
  Lym: 80%
  MCH: 20.5 pg
  MCHC: 33.1%
  MCV: 61.9 fL
  Mono: 2.4%
  Neu: 16.2%
  PT: 12.9 s
  Plat: 112 x10_4/uL
  RBC: 669.6 x10_4/ul
  Ret: 5.3%
  WBC: 138.8 x10_2/uL
  KIDNEY_L: 1.1 g
  KIDNEY_R: 1.1 g
  KIDNEY_TOTAL: 2.2 g
  LIVER: 12.3 g
  A/G: 0.9
  ALP: 1609.6 IU/L
  ALT: 48.6 IU/L
  AST: 71.4 IU/L
  BUN: 14.8 mg/dL
  CRE: 0.2 mg/dL
  Ca: 10.7 mg/dL
  Cl: 104 meq/L
  DBIL: 0.008 mg/dL
  GLC: 189.6 mg/dL
  IP: 7.7 mg/dL
  K: 4 meq/L
  LDH: 55.8 IU/L
  Na: 141.8 meq/L
  PL: 151.8 mg/dL
  RALB: 2.5 g/dL
  TBIL: 0.052 mg/dL
  TC: 74.2 mg/dL
  TG: 94.2 mg/dL
  TP: 5.4 g/dL
  gamma-GTP: 0.8 IU/L
[7]
  TERMINAL_BW: 306.7 g
  APTT: 19.2 s
  Bas: 0.4%
  Eos: 0.8%
  Fbg: 320 mg/dL
  Hb: 14.3 g/dL
  Ht: 43.7%
  Lym: 82.8%
  MCH: 19.3 pg
  MCHC: 32.7%
  MCV: 59.1 fL
  Mono: 1.8%
  Neu: 13.8%
  PT: 12.5 s
  Plat: 127.9 x10_4/uL
  RBC: 740 x10_4/ul
  Ret: 4.3%
  WBC: 116.4 x10_2/uL
  KIDNEY_L: 1.2 g
  KIDNEY_R: 1.2 g
  KIDNEY_TOTAL: 2.4 g
  LIVER: 15 g
  A/G: 0.9
  ALP: 1494.8 IU/L
  ALT: 42.4 IU/L
  AST: 63.4 IU/L
  BUN: 15 mg/dL
  CRE: 0.2 mg/dL
  Ca: 10.9 mg/dL
  Cl: 104.6 meq/L
  DBIL: 0.01 mg/dL
  GLC: 192.6 mg/dL
  IP: 6.8 mg/dL
  K: 3.8 meq/L
  LDH: 49.4 IU/L
  Na: 142.4 meq/L
  PL: 157.2 mg/dL
  RALB: 2.7 g/dL
  TBIL: 0.056 mg/dL
  TC: 72 mg/dL
  TG: 136.8 mg/dL
  TP: 5.9 g/dL
  gamma-GTP: 1 IU/L
[8]
  TERMINAL_BW: 411.9 g
  APTT: 25 s
  Bas: 0.2%
  Eos: 1%
  Fbg: 269.5 mg/dL
  Hb: 15 g/dL
  Ht: 45%
  Lym: 84.5%
  MCH: 18.6 pg
  MCHC: 33.5%
  MCV: 55.6 fL
  Mono: 2%
  Neu: 11.2%
  PT: 13.5 s
  Plat: 102.5 x10_4/uL
  RBC: 808.8 x10_4/ul
  Ret: 2.1%
  WBC: 118.3 x10_2/uL
  KIDNEY_L: 1.4 g
  KIDNEY_R: 1.3 g
  KIDNEY_TOTAL: 2.7 g
  LIVER: 18.7 g
  A/G: 0.8
  ALP: 1194 IU/L
  ALT: 36.5 IU/L
  AST: 59 IU/L
  BUN: 17.2 mg/dL
  CRE: 0.3 mg/dL
  Ca: 10.8 mg/dL
  Cl: 105.2 meq/L
  DBIL: 0.01 mg/dL
  GLC: 203.2 mg/dL
  IP: 6.5 mg/dL
  K: 3.7 meq/L
  LDH: 53.5 IU/L
  Na: 143.2 meq/L
  PL: 132 mg/dL
  RALB: 2.7 g/dL
  TBIL: 0.05 mg/dL
  TC: 58.2 mg/dL
  TG: 111.5 mg/dL
  TP: 6 g/dL
  gamma-GTP: 1 IU/L
